Test results as given in ChEMBL document CHEMBL1133808, “The discovery of sulfonylated dipeptides as potent VLA-4 antagonists” (Bioorg Med Chem Lett, 2001).
Starred links: 1 amine or outer side, 2 acyl side, 3 side chain; linkers in the order of their positions; H or OH if unused. Non-standard residues stand in square brackets, D forms with d. Residues, ends and D or L forms follow the SMILES beside them. *: point of attachment. X1 = O=C(Cc1ccc(N[*:1])cc1)[*:2]; NH(2-Me-phenyl) = Cc1ccccc1N*; CO = O=C([*:1])[*:2]

Legend:
Integrin alpha-4/beta-1 = Integrin alpha-4/beta-1 (Homo sapiens, UniProt P05556+P13612); experiment: Antagonistic activity against VLA-4 integrin of human jurkat cells using [125I]VCAM-Ig as radioligand; format: functional, cell-based
Sequence of Integrin alpha-4/beta-1 (P05556 whole entry, one chain of several): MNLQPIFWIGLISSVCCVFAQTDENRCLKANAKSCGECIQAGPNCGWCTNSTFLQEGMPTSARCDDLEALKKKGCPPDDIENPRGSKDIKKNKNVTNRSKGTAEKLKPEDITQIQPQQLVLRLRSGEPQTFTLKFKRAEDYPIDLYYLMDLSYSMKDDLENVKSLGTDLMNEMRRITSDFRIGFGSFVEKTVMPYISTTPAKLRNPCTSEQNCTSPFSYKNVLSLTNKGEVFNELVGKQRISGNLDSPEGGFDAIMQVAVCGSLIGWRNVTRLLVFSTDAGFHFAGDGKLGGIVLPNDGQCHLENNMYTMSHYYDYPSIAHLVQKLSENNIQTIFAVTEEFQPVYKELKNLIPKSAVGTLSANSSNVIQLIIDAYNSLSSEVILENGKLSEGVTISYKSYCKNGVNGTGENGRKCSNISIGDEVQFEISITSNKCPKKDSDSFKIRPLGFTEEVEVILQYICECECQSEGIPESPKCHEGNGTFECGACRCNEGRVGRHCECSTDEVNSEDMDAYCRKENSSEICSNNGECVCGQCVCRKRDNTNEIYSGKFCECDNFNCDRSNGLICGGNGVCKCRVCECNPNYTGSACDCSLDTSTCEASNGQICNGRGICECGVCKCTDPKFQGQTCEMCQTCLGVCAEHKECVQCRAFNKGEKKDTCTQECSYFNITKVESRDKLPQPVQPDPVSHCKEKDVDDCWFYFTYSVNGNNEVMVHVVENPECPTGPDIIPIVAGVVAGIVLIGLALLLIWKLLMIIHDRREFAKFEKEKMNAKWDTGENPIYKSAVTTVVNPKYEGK

[1] = Plasma half-life in Sprague-Dawley rats; format: ADME, organism-based; conditions: rat
Integrin alpha-4/beta-7 [2] = target: T1, Integrin alpha-4/beta-7 (Homo sapiens, UniProt P13612+P26010); experiment: Inhibition of [125I]VCAM-Ig binding to alpha4-beta7 integrin of human RPMI-8866 cells; format: cell-based
T1 sequence (P13612 whole entry): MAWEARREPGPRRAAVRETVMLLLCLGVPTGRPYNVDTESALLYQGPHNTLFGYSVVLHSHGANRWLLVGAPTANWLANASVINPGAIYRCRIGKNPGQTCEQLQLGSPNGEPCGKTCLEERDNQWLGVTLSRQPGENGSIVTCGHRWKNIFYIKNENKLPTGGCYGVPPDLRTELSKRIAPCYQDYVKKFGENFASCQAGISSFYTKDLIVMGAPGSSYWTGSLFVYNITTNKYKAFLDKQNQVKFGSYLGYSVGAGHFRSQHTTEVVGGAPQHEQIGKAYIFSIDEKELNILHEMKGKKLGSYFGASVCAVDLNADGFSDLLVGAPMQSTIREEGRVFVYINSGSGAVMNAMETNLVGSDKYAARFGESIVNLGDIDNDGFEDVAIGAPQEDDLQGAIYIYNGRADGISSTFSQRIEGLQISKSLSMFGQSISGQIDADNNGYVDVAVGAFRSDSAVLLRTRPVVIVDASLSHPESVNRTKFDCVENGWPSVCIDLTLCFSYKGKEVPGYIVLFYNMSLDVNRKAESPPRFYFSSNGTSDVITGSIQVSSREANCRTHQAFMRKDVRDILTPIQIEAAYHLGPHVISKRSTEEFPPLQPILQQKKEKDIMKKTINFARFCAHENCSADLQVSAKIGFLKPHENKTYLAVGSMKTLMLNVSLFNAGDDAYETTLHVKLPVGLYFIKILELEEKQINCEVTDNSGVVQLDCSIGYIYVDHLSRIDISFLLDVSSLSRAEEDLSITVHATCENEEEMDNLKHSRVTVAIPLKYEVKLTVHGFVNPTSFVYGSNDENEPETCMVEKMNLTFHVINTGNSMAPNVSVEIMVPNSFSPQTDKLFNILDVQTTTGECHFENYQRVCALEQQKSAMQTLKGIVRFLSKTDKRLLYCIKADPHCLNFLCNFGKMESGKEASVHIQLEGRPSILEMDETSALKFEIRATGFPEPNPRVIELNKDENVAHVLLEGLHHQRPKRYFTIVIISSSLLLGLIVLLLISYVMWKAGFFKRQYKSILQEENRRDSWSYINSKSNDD
T1 sequence (P26010 whole entry): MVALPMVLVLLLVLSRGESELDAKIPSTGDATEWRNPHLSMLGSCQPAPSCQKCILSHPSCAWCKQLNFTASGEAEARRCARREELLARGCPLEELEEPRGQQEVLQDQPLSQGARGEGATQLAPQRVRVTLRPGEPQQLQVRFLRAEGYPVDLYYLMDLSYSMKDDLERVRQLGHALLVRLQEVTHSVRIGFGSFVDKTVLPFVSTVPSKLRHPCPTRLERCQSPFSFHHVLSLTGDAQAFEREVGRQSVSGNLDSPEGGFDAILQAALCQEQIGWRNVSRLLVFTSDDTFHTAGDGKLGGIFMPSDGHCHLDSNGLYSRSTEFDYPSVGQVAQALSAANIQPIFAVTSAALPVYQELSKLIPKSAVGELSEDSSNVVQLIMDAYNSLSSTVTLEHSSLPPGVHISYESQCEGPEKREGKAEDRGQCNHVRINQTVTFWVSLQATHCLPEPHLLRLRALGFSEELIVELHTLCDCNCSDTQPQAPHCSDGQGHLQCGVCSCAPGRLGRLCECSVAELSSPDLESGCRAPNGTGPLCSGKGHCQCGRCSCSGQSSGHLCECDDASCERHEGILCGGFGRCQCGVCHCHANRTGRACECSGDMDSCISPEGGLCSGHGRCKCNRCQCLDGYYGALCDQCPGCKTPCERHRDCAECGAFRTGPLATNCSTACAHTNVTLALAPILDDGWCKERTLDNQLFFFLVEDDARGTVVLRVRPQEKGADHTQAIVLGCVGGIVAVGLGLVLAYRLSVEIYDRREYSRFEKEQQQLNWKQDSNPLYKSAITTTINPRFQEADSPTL

[3] = Plasma clearance in Sprague-Dawley rats; format: ADME, organism-based; conditions: rat, read-out: Clp
Integrin alpha-4/beta-7 [4] = target: T1, Integrin alpha-4/beta-7; experiment: Inhibition of [125I]MAdCAM-Ig binding to alpha4-beta7 integrin of human RPMI-8866 cells; format: cell-based

Row | SMILES | IC50 (Integrin alpha-4/beta-1) | IC50 (Integrin alpha-4/beta-7 [2]) | other results
1 | COc1ccc(S(=O)(=O)N2Cc3ccccc3C[C@H]2C(=O)N[C@@H](Cc2ccc3ccccc3c2)C(=O)O)cc1OC | 7 nM | – | –
2 | COc1cccc(OC)c1-c1ccc(C[C@H](NC(=O)[C@@H]2CCCN2S(=O)(=O)c2cc(Cl)cc(Cl)c2)C(=O)O)cc1 | 0.09 nM | – | –
3 | Cc1ccccc1-c1ccc(C[C@H](NC(=O)[C@@H]2CCCN2S(=O)(=O)c2cc(Cl)cc(Cl)c2)C(=O)O)cc1 | 1.43 nM | – | –
4 | N#Cc1cccc(-c2ccc(C[C@H](NC(=O)[C@@H]3CCCN3S(=O)(=O)c3cc(Cl)cc(Cl)c3)C(=O)O)cc2)c1 | 0.39 nM | – | –
5 | CNC(=O)c1ccccc1-c1ccc(C[C@H](NC(=O)[C@@H]2CCCN2S(=O)(=O)c2cc(Cl)cc(Cl)c2)C(=O)O)cc1 | 0.1 nM | – | –
6 | COc1cccc(OC)c1-c1ccc(C[C@H](NC(=O)[C@@H]2CCN2S(=O)(=O)c2cc(Cl)cc(Cl)c2)C(=O)O)cc1 | – | – | clearance [3]: > 100 mL/min/kg; IC50 (Integrin alpha-4/beta-7 [4]): 10.6 nM
7 | CCCC[C@H](NC(=O)[C@@H]1CCCN1S(=O)(=O)c1ccc(OC)c(OC)c1)C(=O)O | 45 nM | – | –
8 | O=C(O)[C@H](Cc1ccc(-c2ccc(F)cc2)cc1)NC(=O)[C@@H]1CCCN1S(=O)(=O)c1cc(Cl)cc(Cl)c1 | 0.9 nM | – | –
9 | COC(=O)c1cccc(-c2ccc(C[C@H](NC(=O)[C@@H]3CCCN3S(=O)(=O)c3cc(Cl)cc(Cl)c3)C(=O)O)cc2)c1 | 0.4 nM | – | –
10 | Cc1ccc(-c2ccc(C[C@H](NC(=O)[C@@H]3CCCN3S(=O)(=O)c3cc(Cl)cc(Cl)c3)C(=O)O)cc2)cc1 | 1.53 nM | – | –
11 | O=C(O)[C@H](Cc1ccc(-c2ccccc2F)cc1)NC(=O)[C@@H]1CCCN1S(=O)(=O)c1cc(Cl)cc(Cl)c1 | 1.02 nM | – | –
12 | O=Cc1ccc(-c2ccc(C[C@H](NC(=O)[C@@H]3CCCN3S(=O)(=O)c3cc(Cl)cc(Cl)c3)C(=O)O)cc2)cc1 | 0.38 nM | – | –
13 | CN(C)C(=O)c1ccccc1-c1ccc(C[C@H](NC(=O)[C@@H]2CCCN2S(=O)(=O)c2cc(Cl)cc(Cl)c2)C(=O)O)cc1 | 0.13 nM | – | –
14 | COc1ccc(S(=O)(=O)N2Cc3ccccc3C[C@H]2C(=O)N[C@@H](CCCNC(=N)N)C(=O)O)cc1OC | 360 nM | – | –
15 | CSc1ccccc1-c1ccc(C[C@H](NC(=O)[C@@H]2CCCN2S(=O)(=O)c2cc(Cl)cc(Cl)c2)C(=O)O)cc1 | 0.36 nM | – | –
16 | O=C(O)c1cccc(-c2ccc(C[C@H](NC(=O)[C@@H]3CCCN3S(=O)(=O)c3cc(Cl)cc(Cl)c3)C(=O)O)cc2)c1 | 0.54 nM | – | –
17 | CS(=O)(=O)c1ccccc1-c1ccc(C[C@H](NC(=O)[C@@H]2CCCN2S(=O)(=O)c2cc(Cl)cc(Cl)c2)C(=O)O)cc1 | 0.1 nM | – | –
18 | CCCC[C@H](NC(=O)[C@@H]1Cc2ccccc2CN1S(=O)(=O)c1cc(Cl)cc(Cl)c1)C(=O)O | 10 nM | – | –
19 | O=C(O)[C@H](Cc1ccc(-c2ccccc2)cc1)NC(=O)[C@@H]1CCCN1S(=O)(=O)c1cc(Cl)cc(Cl)c1 | 0.63 nM | – | –
20 | Cc1ccccc1NC(=O)Nc1ccc(CC(=O)N[C@@H](CC(C)C)C(=O)N[C@@H](CC(=O)O)C(=O)N[C@H](C(=O)N2CCC[C@H]2C(=O)O)C(C)C)cc1 ({NH(2-Me-phenyl)-CO}-[X1]LDVP-OH) | – | 433 nM | IC50 (Integrin alpha-4/beta-7 [4]): 862 nM
21 | O=Cc1ccccc1-c1ccc(C[C@H](NC(=O)[C@@H]2CCCN2S(=O)(=O)c2cc(Cl)cc(Cl)c2)C(=O)O)cc1 | 0.22 nM | – | –
22 | O=Cc1cccc(-c2ccc(C[C@H](NC(=O)[C@@H]3CCCN3S(=O)(=O)c3cc(Cl)cc(Cl)c3)C(=O)O)cc2)c1 | 0.23 nM | – | –
23 | CC(C)C(=O)Oc1cccc(OC(=O)C(C)C)c1-c1ccc(C[C@H](NC(=O)[C@]2(C)CCCN2S(=O)(=O)c2cc(Cl)cc(Cl)c2)C(=O)O)cc1 | 4.5 nM | – | IC50 (Integrin alpha-4/beta-7 [4]): 3550 nM

Second part, led by results:

Row | IC50 (Integrin alpha-4/beta-1) | IC50 (Integrin alpha-4/beta-7 [2]) | SMILES | other results
24 | 0.14 nM | 24.3 nM | C[C@@]1(C(=O)N[C@@H](Cc2ccc(-c3ccccc3C(N)=O)cc2)C(=O)O)CCCN1S(=O)(=O)c1cc(Cl)cc(Cl)c1 | half-life [1]: 1.1 h
25 | 192 nM | 2260 nM | C[C@@]1(C(=O)N[C@@H](Cc2ccc(-c3ccccc3Cl)cc2)C(=O)O)CCCN1S(=O)(=O)c1cc(Cl)cc(Cl)c1 | –
26 | 0.65 nM | 78.2 nM | CSc1ccccc1-c1ccc(C[C@H](NC(=O)[C@]2(C)CCCN2S(=O)(=O)c2cc(Cl)cc(Cl)c2)C(=O)O)cc1 | –
27 | 0.22 nM | 82.7 nM | CN(C)C(=O)c1ccccc1-c1ccc(C[C@H](NC(=O)[C@]2(C)CCCN2S(=O)(=O)c2cc(Cl)cc(Cl)c2)C(=O)O)cc1 | –
28 | 0.15 nM | – | C[C@@]1(C(=O)N[C@@H](Cc2ccc(-c3ccccn3)cc2)C(=O)O)CCCN1S(=O)(=O)c1cc(Cl)cc(Cl)c1 | half-life [1]: 1 h; clearance [3]: 17 mL/min/kg; IC50 (Integrin alpha-4/beta-7 [4]): 97.1 nM
29 | 0.52 nM | – | C[C@@]1(C(=O)N[C@@H](Cc2ccc(-c3nc[nH]n3)cc2)C(=O)O)CCCN1S(=O)(=O)c1cc(Cl)cc(Cl)c1 | IC50 (Integrin alpha-4/beta-7 [4]): 949 nM
30 | 0.24 nM | 413 nM | C[C@@]1(C(=O)N[C@@H](Cc2ccc(-c3nccs3)cc2)C(=O)O)CCCN1S(=O)(=O)c1cc(Cl)cc(Cl)c1 | –
31 | 2.4 nM | > 4000 nM | C[C@@]1(C(=O)N[C@@H](Cc2ccc(-c3ccccc3F)cc2)C(=O)O)CCCN1S(=O)(=O)c1cc(Cl)cc(Cl)c1 | –
32 | 0.35 nM | 311 nM | C[C@@]1(C(=O)N[C@@H](Cc2ccc(-c3cccnc3)cc2)C(=O)O)CCCN1S(=O)(=O)c1cc(Cl)cc(Cl)c1 | –
33 | 1.12 nM | 1140 nM | C[C@@]1(C(=O)N[C@@H](Cc2ccc(-c3cccc(C#N)c3)cc2)C(=O)O)CCCN1S(=O)(=O)c1cc(Cl)cc(Cl)c1 | –
34 | 0.09 nM | – | NC(=O)c1ccccc1-c1ccc(C[C@H](NC(=O)[C@@H]2CCCN2S(=O)(=O)c2cc(Cl)cc(Cl)c2)C(=O)O)cc1 | –
35 | 0.5 nM | – | C[C@@]1(C(=O)N[C@@H](Cc2ccc(-c3c(O)cccc3O)cc2)C(=O)O)CCCN1S(=O)(=O)c1cc(Cl)cc(Cl)c1 | IC50 (Integrin alpha-4/beta-7 [4]): 670 nM
36 | 0.15 nM | – | COC(=O)c1ccccc1-c1ccc(C[C@H](NC(=O)[C@@H]2CCCN2S(=O)(=O)c2cc(Cl)cc(Cl)c2)C(=O)O)cc1 | –
37 | 0.95 nM | – | O=C(O)c1ccccc1-c1ccc(C[C@H](NC(=O)[C@@H]2CCCN2S(=O)(=O)c2cc(Cl)cc(Cl)c2)C(=O)O)cc1 | –
38 | 0.52 nM | 242 nM | COc1ccccc1-c1ccc(C[C@H](NC(=O)[C@]2(C)CCCN2S(=O)(=O)c2cc(Cl)cc(Cl)c2)C(=O)O)cc1 | clearance [3]: 20 mL/min/kg
39 | 0.14 nM | – | C[C@@]1(C(=O)N[C@@H](Cc2ccc(-c3ncccc3C#N)cc2)C(=O)O)CCCN1S(=O)(=O)c1cc(Cl)cc(Cl)c1 | –
40 | 1.33 nM | 5720 nM | C[C@@]1(C(=O)N[C@@H](Cc2ccc(-c3cccc4cc[nH]c34)cc2)C(=O)O)CCCN1S(=O)(=O)c1cc(Cl)cc(Cl)c1 | –
41 | 1.01 nM | 1240 nM | C[C@@]1(C(=O)N[C@@H](Cc2ccc(-c3cc(C#N)ccc3F)cc2)C(=O)O)CCCN1S(=O)(=O)c1cc(Cl)cc(Cl)c1 | –
42 | 0.16 nM | 13.2 nM | C[C@@]1(C(=O)N[C@@H](Cc2ccc(-c3ccccc3S(C)(=O)=O)cc2)C(=O)O)CCCN1S(=O)(=O)c1cc(Cl)cc(Cl)c1 | –
43 | 0.28 nM | – | COc1cccc(C#N)c1-c1ccc(C[C@H](NC(=O)[C@]2(C)CCCN2S(=O)(=O)c2cc(Cl)cc(Cl)c2)C(=O)O)cc1 | IC50 (Integrin alpha-4/beta-7 [4]): 77 nM
